For 79 molecules, RP-LC retention time results are on record in the METLIN SMRT retention time set (Domingo-Almenara et al. 2019).

Molecules are shown by their SMILES.

This series can be described thus: gradient 5% acetonitrile 3 min, to 50% in 2 min, to 85% in 15 min, held 3 min, 100 µL/min. The note with it: column: Zorbax Extend-C18 2.1 x 50 mm; eluents: water / acetonitrile, 0.1% formic acid. In a few lines: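 Over 3 months, pure standards in mixtures of ~100 molecules were run by HPLC coupled to a quadrupole time-of-flight mass spectrometer in positive and negative ionization mode. The column was a Zorbax Extend-C18 (2.1 × 50 mm, 1.8 μm) at 100 μL/min, eluted with water and acetonitrile each holding 0.1% formic acid, with 40 μL dead and 900 μL dwell volumes. Retention time was determined from adduct peaks chosen by software and checked manually.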
Consider `CCOc1ccc(-c2noc(-c3nn(-c4cccc(OC)c4)ccc3=O)n2)cc1`, for which the RP-LC retention time stood at 938 s.

For the molecule `CN1C(=O)c2cc(S(=O)(=O)Nc3cccc(F)c3)ccc2Oc2cccnc21`, the RP-LC retention time was found to be 879 s.

Regarding `CCN1C(=O)c2cccnc2Sc2cc(CNC(=O)c3ccccc3OC)ccc21`, the RP-LC retention time worked out at 772 s.

In turn, `CCOCCCNC(=O)c1nnc(-c2ccc(S(=O)(=O)N3CCC(C)CC3)cc2)o1` came in with an RP-LC retention time of 924 s.

On to `COc1ccc(-n2c(=O)n(C)c(=O)c3cc(C(=O)NCc4ccc(F)cc4)cnc32)cc1`, for which the RP-LC retention time was determined as 849 s.

Turning to `O=C(NCC(=O)N1CCN(c2ccccn2)CC1)c1ccc(OC(F)(F)F)cc1`, the RP-LC retention time was 635 s.

Regarding `Fc1ccc(-c2noc(Cc3nnc(-c4ccc(F)cc4)o3)n2)cc1`, the RP-LC retention time was found to be 991 s.

In turn, `O=C1C(c2cccnc2)N(CCCc2ccccc2)C(=O)CN1c1ccccc1` (centres undefined) gave an RP-LC retention time of 776 s.

`COc1ccccc1CC(=O)N1CCCC1c1c(C)noc1C` (centres undefined) came in with an RP-LC retention time of 753 s.

`CCc1nc(-c2csc(S(=O)(=O)N3CCCC(C(=O)Nc4ccc(C)c(F)c4)C3)c2)no1` (centres undefined): the RP-LC retention time worked out at 1110 s.

Consider `COc1cc(NC(=O)Cn2nc3c(N4CCSCC4)nccn3c2=O)cc(OC)c1`, for which the RP-LC retention time came to 795 s.

Molecule `COc1ccccc1NC(=O)Nc1c(-c2cccc(C)c2)nc2ccccn12` had an RP-LC retention time of 700 s.

Molecule `O=C(NCc1ccccc1C(F)(F)F)C1CCN(c2cnc3nccnc3c2)CC1` yielded an RP-LC retention time of 747 s.

`CCc1ccc(NC(=O)N2C[C@@H](F)C[C@H]2C(=O)N2CCc3ccccc3C2)cc1` gave an RP-LC retention time of 887 s.

Molecule `COc1cccc(N2CCN(c3ccnc(SCC(=O)Nc4ccc(OC)c(Cl)c4)n3)CC2)c1` had an RP-LC retention time of 754 s.

In the case of `CCCN1C(=O)COc2ccc(-c3csc(NC(=O)c4ccc(F)cc4)n3)cc21`, the RP-LC retention time came to 1060 s.

Molecule `CCN(CC)c1ncnc2c(-c3ccccc3)cn(CC(=O)NCCc3ccc(OC)c(OC)c3)c12` registered an RP-LC retention time of 726 s.

For the molecule `Cc1ccc(CNC(=O)C2CCN(S(C)(=O)=O)c3cc(Cl)ccc3O2)cc1` (centres undefined), the RP-LC retention time was determined as 955 s.

Consider `COc1cccc(NS(=O)(=O)c2ccc(-c3c(C)noc3C)cc2)c1`, for which the RP-LC retention time is 884 s.

`O=C(COc1ccccc1)N1CCCCC1c1nncn1CC1CC1` (centres undefined) displayed an RP-LC retention time of 731 s.

As for `O=C(c1ccoc1)N1CCCC(c2ccnc(-c3ccccc3)n2)C1` (centres undefined), the RP-LC retention time stood at 892 s.

With `Cc1ccc(C)c(C(=O)Nc2cc(-c3cccnc3)no2)c1`, the RP-LC retention time is 585 s.

`CCN1CCC2(CC1)N=C(c1ccc(Cl)cc1)CC(c1cccc(OC)c1O)N2` (centres undefined) yielded an RP-LC retention time of 621 s.

As to `CCOc1ccc(N2C(=O)C3N=NN(Cc4nc(-c5ccc(Br)cc5)no4)C3C2=O)cc1` (centres undefined), the RP-LC retention time worked out at 1050 s.

In turn, `Cc1cc(N2CCOCC2)nc(N2CCN(C(=O)c3ccc(Br)cc3)CC2)n1` came in with an RP-LC retention time of 660 s.

Molecule `Cc1nnc(-c2coc(S(=O)(=O)N3CCC(Cc4ccccc4)CC3)c2)o1` displayed an RP-LC retention time of 1010 s.

Turning to `Cc1ccc(-c2nnc(N3CCC(C(=O)NCCCN4CCOCC4)CC3)o2)cc1`, the RP-LC retention time turned out to be 608 s.

Consider `CCOc1ccccc1-c1c(C#N)c(N)nc2c1c(=O)n(C)c(=O)n2C`, for which the RP-LC retention time stood at 786 s.

The molecule `O=C(NCc1ccccn1)C1CC(=O)N(c2n[nH]c3cc(Br)ccc23)C1` (centres undefined) yielded an RP-LC retention time of 600 s.

In the case of `c1ccc(Cc2nnc3sc(-c4ccc5ccccc5n4)nn23)cc1`, the RP-LC retention time amounted to 1120 s.

For `O=C(Cc1ccccc1Br)NC1CCN(c2cc(-c3ccc(F)cc3)[nH]n2)C1` (centres undefined), the RP-LC retention time turned out to be 752 s.

Consider `Cc1cc(Cc2ccc(S(=O)(=O)N3CCN(C)CC3)cc2)c(=O)[nH]n1`, for which the RP-LC retention time was 575 s.

As for `CC(C)Oc1ccccc1CN1CC[C@@H]2CN(S(C)(=O)=O)[C@@H]2C1`, the RP-LC retention time was found to be 638 s.

`Cc1cccc(CNC(=O)c2sc(CC(=O)N3CCSCC3)nc2C)c1` showed an RP-LC retention time of 798 s.

Take `Cc1ccc(-c2nnc(Cc3nc(-c4cccc(Cl)c4)no3)o2)cc1C`: the RP-LC retention time turned out to be 1230 s.

For `CCOc1ccccc1NC(=O)Cn1nc2cc(-c3ccc(OC)cc3)nc(C)n2c1=O`, the RP-LC retention time came out at 1020 s.

`CCOC(=O)c1nc(Nc2ccc(S(=O)(=O)Nc3ncccn3)cc2)c2ccccc2n1` had an RP-LC retention time of 688 s.

On to `O=S(=O)(c1ccc(-c2noc(COc3ccc(Cl)cc3)n2)cc1)N1CCOCC1`, for which the RP-LC retention time stood at 1090 s.

As to `O=C(CN1C[C@H]2C[C@H](C1)[C@H]1CCCC(=O)N1C2)NCCC1=CCCCC1`, the RP-LC retention time turned out to be 627 s.

Molecule `CCCC(=O)Nc1nc(-c2ccccc2)c(-c2ccccc2)s1` registered an RP-LC retention time of 1160 s.

The molecule `CCc1cc(=O)n(CC(=O)Nc2ccccc2C)c(N2CCOCC2)n1` gave an RP-LC retention time of 658 s.

The molecule `CCc1ccc(S(=O)(=O)N2CC(COC)C3(CCNCC3)C2)cc1` (centres undefined) came in with an RP-LC retention time of 630 s.

The molecule `CCn1cc(CCNC(=O)Nc2cccc(C)c2C)c2cccnc21` returned an RP-LC retention time of 720 s.

For the molecule `CCOC(CNCc1cc(C)c2[nH]c3ccccc3c2c1C)OCC`, the RP-LC retention time came out at 812 s.

Consider `CCC(=O)N(C1CCOCC1)C1CCN(S(=O)(=O)c2ccc(C(C)C)cc2)CC1`, for which the RP-LC retention time was found to be 983 s.

In turn, `Cn1c(C(=O)Nc2cccc(Cl)c2)cc2c(=O)oc3ccccc3c21` yielded an RP-LC retention time of 1050 s.

For the molecule `CCCn1cc(C2=CCN(C(=O)NCC3CCCO3)CC2)c2cccnc21` (centres undefined), the RP-LC retention time turned out to be 719 s.

Molecule `CCn1cc(C)c(C(=O)O)c1CC(=O)N(C)c1ccc(C)c(C)c1` came in with an RP-LC retention time of 1000 s.

Take `COc1ccc(N2CCN(C(=O)c3cn4c(n3)COCC4)CC2)cc1`: the RP-LC retention time was 598 s.

`O=C(NCc1ccccc1F)C1CCN(c2cc(N3CCCCC3)ncn2)CC1` returned an RP-LC retention time of 680 s.

On to `Cc1nc2nc(SCC(=O)NCCCN3CCOCC3)nn2c(C)c1Cc1ccccc1`, for which the RP-LC retention time was 622 s.

`COc1cc(-c2noc(-c3nn(-c4ccc(C)c(C)c4)ccc3=O)n2)cc(OC)c1OC` registered an RP-LC retention time of 928 s.

The molecule `CC(C)CNC(=O)c1nnc(-c2ccc(S(=O)(=O)N(C)C)cc2)o1` came in with an RP-LC retention time of 787 s.

The molecule `CCn1cc(-c2nc(CC(=O)N3CCc4ccccc43)cs2)c2cccnc21` had an RP-LC retention time of 954 s.

As to `Cc1ccc(NC(=O)CN2C(=O)NC3(CCCCC3)C2=O)c(C)c1`, the RP-LC retention time stood at 774 s.

In the case of `CCN1CCn2cc(S(=O)(=O)Nc3cc(C)cc(C)c3)cc2C1=O`, the RP-LC retention time was 729 s.

For `Fc1ccc(-c2nc3ccccc3[nH]2)cc1`, the RP-LC retention time came out at 557 s.

As to `CCOc1ccccc1C(=O)N(C)CC1(C)CCOCC1`, the RP-LC retention time was 794 s.

`CN1C(=O)CN=C(c2ccccc2)c2cc([N+](=O)[O-])ccc21`: the RP-LC retention time stood at 869 s.

On to `CCCCC(=O)N1CCN(c2nc3ccccc3nc2C(F)(F)F)CC1`, for which the RP-LC retention time was found to be 1080 s.

Molecule `CCOC(=O)C1=C(CN2CCN(c3ccccn3)CC2)NC(=O)NC1c1ccc(F)cc1` (centres undefined) showed an RP-LC retention time of 625 s.

`CCc1nc(-c2ccc(-c3noc(C(C)NC(=O)c4ccco4)n3)cc2)cs1` (centres undefined): the RP-LC retention time worked out at 980 s.

`O=C(Nc1cccc2nsnc12)C1CCN(c2ccc(-c3cccs3)nn2)CC1`: the RP-LC retention time is 668 s.

In the case of `CN(C)C(=O)c1n[nH]c2c1CN(C(=O)c1cccc(Br)c1)CC2`, the RP-LC retention time amounted to 654 s.

In turn, `CCc1nc2sc(C)nn2c1S(=O)(=O)N1CCOCC1` gave an RP-LC retention time of 699 s.

For the molecule `Cc1ccc(CNC(=O)C2CCCN(c3nc4c(s3)c(C)nn4-c3ccc(F)cc3)C2)o1` (centres undefined), the RP-LC retention time was found to be 1100 s.

With `Cn1c(=O)c(N2CCC(NC(=O)Nc3ccc4c(c3)OCO4)CC2)nc2ccccc21`, the RP-LC retention time amounted to 809 s.

Consider `O=C(Nc1ccccc1F)C(=O)c1ccc[nH]1`, for which the RP-LC retention time worked out at 858 s.

In turn, `O=C(NCc1cccc(Cl)c1)C1CCCN(c2nc3ncccc3n3cccc23)C1` (centres undefined) showed an RP-LC retention time of 664 s.

Molecule `Cn1cc(-c2cc3n(n2)CCCN3C(=O)CCC(=O)NCCN2CCOCC2)c2ccccc21` came in with an RP-LC retention time of 618 s.

`Fc1ccc(-c2nc3ncccn3c2Nc2ccc(Cl)cc2)cc1` gave an RP-LC retention time of 847 s.

`Cc1ccccc1Cn1cnc2c(cnn2CCNC(=O)Cn2cnc3ccccc32)c1=O` yielded an RP-LC retention time of 578 s.

For the molecule `Cc1cccc(N2CCN(C(=O)c3cn4c(n3)CCCC4)CC2)c1C`, the RP-LC retention time is 690 s.

Turning to `Cc1ccc(S(=O)(=O)N2CCCC2c2nc(-c3ccccc3C)no2)cc1Cl` (centres undefined), the RP-LC retention time turned out to be 1290 s.

In turn, `CCOc1ccc(-n2c(=O)c3sccc3n(Cc3nc(-c4cccc(OC)c4)no3)c2=O)cc1` showed an RP-LC retention time of 1000 s.

`COc1ccc(-n2ccn3cc(-c4ccc(Br)cc4)nc3c2=O)cc1` gave an RP-LC retention time of 891 s.

`CC(C)C(=O)Nc1ccc2nc(N3CCN(CC(=O)N4CCCC4)CC3)cc(C(=O)O)c2c1`: the RP-LC retention time is 561 s.

`O=C(NCCc1csc(-c2ccccc2)n1)C1CCN(S(=O)(=O)c2ccc(F)cc2)CC1` showed an RP-LC retention time of 928 s.

For `Cc1ccc(S(=O)(=O)N2CCC3(CC2)NCCN=C3NCc2cc(F)cc(F)c2)cc1`, the RP-LC retention time is 734 s.
